# Test system: Cultured peripheral nerve cells (dorsal neuro ganglion neuron)
# Assay: Test 4: stimulatory property of diquafosol sodium to peripheral nerves (intracellular calcium fluorescence)
# Type: cell-based
# Conditions: stimulation control group (buffer solution instead of formulation solution); diquafosol sodium final concentration 0.3%
# Method: The stimulatory property of diquafosol sodium to peripheral nerves in the presence of PVP which is a type of […] was examined. “PVP” denotes polyvinylpyrrolidone. “CMC-Na” denotes carboxymethylcellulose sodium. “HPMC” denotes hydroxypropylmethylcellulose. “CVP” denotes a carboxyvinyl polymer.
# Cultured peripheral nerve cells (dorsal neuro ganglion neuron; purchased from Lonza Japan Ltd.) were incubated in a buffer solution containing an intracellular calcium indicator fluorescent dye (FLIPR Calcium 6 Assay Kit; Molecular Devices, LLC). 40% of the total amount of the buffer solution was replaced by each of the above-described formulation solutions. A non-stimulation group and a stimulation control group were similarly treated with the buffer solution instead of the formulation solution. The cells were left standing at room temperature, followed by starting fluorescence measurement over time with the calcium indicator dye using a fluorescence plate reader. 60 seconds after the start of the measurement, diquafosol sodium (final concentration: 0.3%) was added, and the measurement of fluorescence intensity was continued.
# The maximum fluorescence intensity (RFUmax) after addition of diquafosol sodium was calculated as a relative value against the fluorescence intensity (RFU) immediately before the addition, with the fluorescence intensity (RFU) defined as 100%.
smiles,measurement,value
"O=c1ccn([C@@H]2O[C@H](COP(=O)([O-])OP(=O)([O-])OP(=O)([O-])OP(=O)([O-])OC[C@H]3O[C@@H](n4ccc(=O)[nH]c4=O)[C@H](O)[C@@H]3O)[C@@H](O)[C@H]2O)c(=O)[nH]1.[Na+].[Na+].[Na+].[Na+] [diquafosol sodium, diquafosol tetrasodium salt]",maximum fluorescence intensity (RFUmax) after addition of diquafosol sodium,≥ 103.5%

# — patent publication US20210000844A1, “OPHTHALMIC COMPOSITION COMPRISING DIQUAFOSOL AND CATIONIC POLYMER” (Santen Pharmaceutical Co., Ltd., priority 2018, published 2021)
